Measured values as given in PubChem BioAssay (NCI).
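A five-concentration, 48-hour dose response in 96-well plates underlies each endpoint, interpolated linearly between surrounding concentrations. At the TGI there is no net growth.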

Key:
Assay in all cases: NCI tumour cell line growth inhibition, 48 h
A498 renal = tested on: A498 renal
CAKI-1 renal = tested on: CAKI-1 renal
HCC-2998 colon = tested on: HCC-2998 colon
HCT-15 colon = tested on: HCT-15 colon
LOX IMVI melanoma = tested on: LOX IMVI melanoma
NCI-H226 lung = tested on: NCI-H226 lung
OVCAR-4 ovarian = tested on: OVCAR-4 ovarian
OVCAR-8 ovarian = tested on: OVCAR-8 ovarian
SN12C renal = tested on: SN12C renal
SNB-19 CNS = tested on: SNB-19 CNS
SW-620 colon = tested on: SW-620 colon
T-47D breast = tested on: T-47D breast
UO-31 renal = tested on: UO-31 renal
OVCAR-3 ovarian = tested on: OVCAR-3 ovarian

Compound: Cc1ccc2[nH]c3c(c(=O)n(C)c(=O)n3C)c2c1
- TGI (A498 renal): > 100 µM
- TGI (CAKI-1 renal): > 100 µM
- TGI (HCC-2998 colon): > 100 µM
- TGI (HCT-15 colon): > 100 µM
- TGI (LOX IMVI melanoma): > 100 µM
- TGI (NCI-H226 lung): > 100 µM
- TGI (OVCAR-4 ovarian): > 100 µM
- TGI (OVCAR-8 ovarian): > 100 µM
- TGI (SN12C renal): > 100 µM
- TGI (SNB-19 CNS): > 100 µM
- TGI (SW-620 colon): > 100 µM
- TGI (T-47D breast): > 100 µM
- TGI (UO-31 renal): > 100 µM

Compound: CCO/C(O)=C(/C(=N)N1CCOCC1)C(=O)NC(C)C
- TGI (A498 renal): > 100 µM
- TGI (CAKI-1 renal): > 100 µM
- TGI (HCC-2998 colon): > 100 µM
- TGI (HCT-15 colon): > 100 µM
- TGI (LOX IMVI melanoma): > 100 µM
- TGI (NCI-H226 lung): > 100 µM
- TGI (OVCAR-3 ovarian): > 100 µM
- TGI (OVCAR-4 ovarian): > 100 µM
- TGI (OVCAR-8 ovarian): > 100 µM
- TGI (SN12C renal): > 100 µM
- TGI (SNB-19 CNS): > 100 µM
- TGI (SW-620 colon): > 100 µM
- TGI (T-47D breast): > 100 µM

Compound: N=c1oc2ccccc2cc1C(=O)Nc1cccc2ccccc12
- TGI (A498 renal): > 100 µM
- TGI (CAKI-1 renal): > 100 µM
- TGI (HCC-2998 colon): > 100 µM
- TGI (HCT-15 colon): > 100 µM
- TGI (LOX IMVI melanoma): > 100 µM
- TGI (NCI-H226 lung): > 100 µM
- TGI (OVCAR-3 ovarian): > 100 µM
- TGI (OVCAR-4 ovarian): > 100 µM
- TGI (OVCAR-8 ovarian): > 100 µM
- TGI (SN12C renal): > 100 µM
- TGI (SNB-19 CNS): > 100 µM
- TGI (SW-620 colon): > 100 µM
- TGI (T-47D breast): > 100 µM

Compound: CC(C)(C)OC(=O)N(O)[C@@H]1CC[C@H](n2cnc3c(N)ncnc32)C1
- TGI (A498 renal): > 100 µM
- TGI (HCC-2998 colon): > 100 µM
- TGI (HCT-15 colon): > 100 µM
- TGI (LOX IMVI melanoma): > 100 µM
- TGI (NCI-H226 lung): > 100 µM
- TGI (OVCAR-3 ovarian): > 100 µM
- TGI (OVCAR-4 ovarian): > 100 µM
- TGI (OVCAR-8 ovarian): > 100 µM
- TGI (SN12C renal): > 100 µM
- TGI (SNB-19 CNS): > 100 µM
- TGI (SW-620 colon): > 100 µM
- TGI (T-47D breast): > 100 µM
- TGI (UO-31 renal): > 100 µM

Compound: c1ccc2sc(SSSc3nc4ccccc4s3)nc2c1
- TGI (A498 renal): > 100 µM
- TGI (CAKI-1 renal): > 100 µM
- TGI (HCC-2998 colon): > 100 µM
- TGI (HCT-15 colon): > 100 µM
- TGI (LOX IMVI melanoma): 49 µM
- TGI (NCI-H226 lung): > 100 µM
- TGI (OVCAR-4 ovarian): > 100 µM
- TGI (OVCAR-8 ovarian): > 100 µM
- TGI (SN12C renal): > 100 µM
- TGI (SNB-19 CNS): > 100 µM
- TGI (SW-620 colon): > 100 µM
- TGI (T-47D breast): > 100 µM
- TGI (UO-31 renal): > 100 µM

Compound: O=c1[nH]c(=O)c2c([nH]1)[nH]c1ccc(Br)cc12
- TGI (A498 renal): > 100 µM
- TGI (CAKI-1 renal): > 100 µM
- TGI (HCC-2998 colon): > 100 µM
- TGI (HCT-15 colon): > 100 µM
- TGI (LOX IMVI melanoma): > 100 µM
- TGI (NCI-H226 lung): > 100 µM
- TGI (OVCAR-8 ovarian): > 100 µM
- TGI (SN12C renal): > 100 µM
- TGI (SNB-19 CNS): > 100 µM
- TGI (SW-620 colon): > 100 µM
- TGI (T-47D breast): > 100 µM
- TGI (UO-31 renal): > 100 µM

Compound: CC(Br)CN1CCOCC1 (stereo not drawn)
- TGI (A498 renal): > 100 µM
- TGI (CAKI-1 renal): > 100 µM
- TGI (HCC-2998 colon): > 100 µM
- TGI (HCT-15 colon): > 100 µM
- TGI (LOX IMVI melanoma): > 100 µM
- TGI (NCI-H226 lung): > 100 µM
- TGI (OVCAR-3 ovarian): > 100 µM
- TGI (OVCAR-8 ovarian): > 100 µM
- TGI (SN12C renal): > 100 µM
- TGI (SNB-19 CNS): > 100 µM
- TGI (SW-620 colon): > 100 µM
- TGI (T-47D breast): > 100 µM
- TGI (UO-31 renal): > 100 µM

Compound: Clc1sc(Cl)c2c1[C@H](Cl)C[C@@H]2Cl
- TGI (A498 renal): > 100 µM
- TGI (CAKI-1 renal): 44.5 µM
- TGI (HCC-2998 colon): 33.4 µM
- TGI (HCT-15 colon): 41.3 µM
- TGI (LOX IMVI melanoma): 25.2 µM
- TGI (NCI-H226 lung): 39.8 µM
- TGI (OVCAR-3 ovarian): 70.9 µM
- TGI (OVCAR-4 ovarian): 52.7 µM
- TGI (OVCAR-8 ovarian): 34.9 µM
- TGI (SN12C renal): 50.6 µM
- TGI (SW-620 colon): 19.6 µM
- TGI (T-47D breast): 72.9 µM
- TGI (UO-31 renal): 32.3 µM
